Test system: adventitious root formation in control and PtrXB38-OE micro-cuttings
Experiment: Adventitious root formation of micro-propagated cuttings in ½ MS medium with chemical treatment
Format: in vivo, P. tremula×P. alba ‘INRA 717-1B4’
Procedure: Plant Growth Conditions: The tissue culture plants were maintained in ½ MS media (½ MS basal salts, 20 g/L sucrose, 1× Gamborg's B5 vitamin mixture, 0.3% Gelzan) supplemented with 0.1 mg/L IBA and grown in growth chambers (16 h:8 h, light:dark) with white fluorescent light (100 μmol m^−2 s^−1) at 22° C. To assess adventitious root development phenotype, 2-3 cm length of shoot tops from 1-month-old tissue culture saplings were excised and placed in fresh medium for root induction. Root number was counted 12 days after subculture. For chemical treatment, filter-sterilized auxin transport inhibitor naphthylphthalamic acid (NPA) and ethylene biosynthesis inhibitor aminoethoxyvinylglycine (AVG) were added in the ½ MS medium.

**Q.** How did the root formation (5 μM NPA, both control and PtrXB38-OE micro-cuttings) turn out when O=C(O)c1ccccc1C(=O)Nc1cccc2ccccc12 [NPA, naphthylphthalamic acid] was run?
**A.** completely blocked root formation

**Q.** And the “promotive effect of PtrXB38 on AR formation (adventitious root number)” value (increasing NPA concentrations (0.2 μM and 1 μM, FIG. 3D), PtrXB38-OE plants)?
**A.** gradually attenuated

Reference: US12703870B2, “Regulation of root development” (UT-Battelle, LLC, priority 2023, dated 2026)
